Results: patent USRE39148E1, “Potentiation of the Microbicide 2-(Thiocyanomethylthio)benzothiazole using an n-alkyl heterocyclic compound” (Buckman Laboratories International, Inc., priority 1995, dated 2006)

Assays:
[1] = test system: Sphaerotilus natans, ATCC 15291; assay: 18 Hour Stokes Broth Test; type: cell-based; details: alone
Protocol: The bactericidal effects of the combined use of TCMTB and N-alkyl heterocyclic compounds against bacteria were measured using an 18 Hour Stokes Broth Test. Combinations of TCMTB and N-dodecyl morpho line (DDM) and of TCMTB and N-dodecyl imidazole (DDI) were tested against the bacteria Sphaerotilus natans, ATCC 15291. In this test, compound A was Busan® 1030 product, a 30% TCMTB formulation, and compound B was either DDM (99%) or DDI (99%). The Busan® […] product is available from Buckman Laboratories, Memphis, Tenn. The Stokes broth substrate used to evaluate effectiveness of microbicidal compositions against Sphaerotilus natans was prepared by adding the following to one liter of water: [table] The broth was adjusted to pH 7.0 with sodium hydroxide. Forty gram portions were then added to 180 mL Pyrex milk dilution bottles fitted with […] rubber stoppers and then sterilized. Each of the following substances was then added to each bottle in the order listed. • 1. Sterile distilled water as required in each individual case to bring the total weight of the contents of each bottle to 50 g after all subsequent additions specified below (including inoculation with the aqueous suspension of test organism) have been made. • 2. Solution of toxicant or control agent to be evaluated in such individual volumes as to give the concentration desired in parts per million by weight. • 3. One mL of a 24-hour old S. natans culture grown in Stokes broth. After the inoculant suspension of the test organism was added to the bottles they were incubated at 28° C. for 18 hours. After this incubation, a 1 mL of sample was withdrawn from each bottle, diluted, plated on Stokes agar, and incubated for 72-96 hr. at 28-30° C. Stokes agar was prepared like the broth with 12.5 g agar added per liter. The number of colonies on each plate was determined and converted to the count per milliliter of substrate. […] A percentage kill of 90 percent or higher represents an extremely useful bactericidal composition. […] Others may be calculated from the data presented.

[2] = test system: Desulfovibrio desulfuricans, ATCC 7757; assay: 28 Day API Test; type: cell-based; design: key: 0=no growth; 4=heavy growth; details: alone
Protocol: The bactericidal effects of the combined use of TCMTB and N-alkyl heterocyclic compounds against bacteria were measured using an 28 Day API Test. Combinations of TCMTB (compound A) and N-dodecyl morpholine (DDM, compound B) and of TCMTB (compound A) and N-dodecyl imidazole (DDI, compound B) were tested against the bateria Desulfovibrio desulfuricans, ATCC 7757. Busan® 1030 product, a 30% TCMTB formulation, DDM (99%), and DDI (99%) were used in this testing. The Busan® […] product is available from Buckman Laboratories, Memphis Tenn. The medium used was a modified API Broth having the following composition: […] The compounds were dissolved in 1.0 L of deionized water to form the medium. The pH of the medium was adjusted to a final pH of 6.9 with 1 N sodium hydroxide prior to sterilization. The medium was sterilized at 121° C. for 20 minutes and then allowed to cool to room temperature. The medium is then inoculated by adding 10 ml per liter of a 24-hr. broth culture of Desulfovibrio desulfuricans. From stock solutions of the chemicals to be tested, sufficient amounts of the compounds were added to 1 oz. glass bottles so that when a bottle was completely filled, the desired concentration of the chemical was present. The bottles were then completely filled with the inoculated API broth (10 mL innoculum per liter medium) in a manner such as to exclude all air and provide an anaerobic state. The bottles were capped tightly and inverted gently to mix the contents and, at the same time, to make sure no air bubbles were present. Incubation was carried out at 37° C. for 28 days. Growth was indicated by blackening of the culture medium, whereas those bottles having sufficient chemical to inhibit growth would remain clear. Observations of growth were made at the end of 7 days, 14 days, 21 days and 28 days. […] The minimum inhibitory concentration (MIC) was defined as the lowest concentration tested which gave no growth in the bottle (clear liquid). […] Others may be calculated from the data presented.

CCCCCCCCCCCCn1ccnc1 [Dodecyl Imidazole, N-dodecyl imidazole]
1.26 × 10^6 CFU/mL: CFU/mL ([1]; Table 3, 1 ppm)
<10^3 CFU/mL: CFU/mL ([1]; Table 3, 5 ppm) | CFU/mL ([1]; Table 3, 10 ppm) | CFU/mL ([1]; Table 3, 20 ppm) | CFU/mL ([1]; Table 3, 50 ppm) | CFU/mL ([1]; Table 3, 100 ppm)
6.80 × 10^5 CFU/mL: CFU/mL ([1]; Table 3, 2 ppm)
75.1%: % Kill ([1]; Table 3, 1 ppm)
86.5%: % Kill ([1]; Table 3, 2 ppm)

CCCCCCCCCCCCN1CCOCC1 [Dodecyl Morpholine, N-dodecyl morpholine]
8.51 × 10^5 CFU/mL: CFU/mL ([1]; Table 2, 5 ppm)
1.58 × 10^6 CFU/mL: CFU/mL ([1]; Table 2, 1 ppm)
67.4%: % Kill ([1]; Table 2, 2 ppm)
0: growth, Day 7 ([2]; Table 4, 80 ppm) | growth, Day 7 ([2]; Table 4, 160 ppm) | growth, Day 14 ([2]; Table 4, 160 ppm) | growth, Day 7 ([2]; Table 4, 320 ppm) | growth, Day 14 ([2]; Table 4, 320 ppm) | growth, Day 21 ([2]; Table 4, 320 ppm) | growth, Day 28 ([2]; Table 4, 320 ppm) | growth, Day 7 ([2]; Table 5, 16 ppm) | growth, Day 14 ([2]; Table 5, 16 ppm) | growth, Day 21 ([2]; Table 5, 16 ppm) | growth, Day 28 ([2]; Table 5, 16 ppm) | growth, Day 7 ([2]; Table 5, 32 ppm) | growth, Day 14 ([2]; Table 5, 32 ppm) | growth, Day 28 ([2]; Table 5, 32 ppm)
2: growth, Day 7 ([2]; Table 4, 40 ppm) | growth, Day 21 ([2]; Table 4, 160 ppm) | growth, Day 7 ([2]; Table 5, 8 ppm)
<10^3 CFU/mL: CFU/mL ([1]; Table 2, 10 ppm) | CFU/mL ([1]; Table 2, 20 ppm)
1.24 × 10^6 CFU/mL: CFU/mL ([1]; Table 2, 2 ppm)
4: growth, Day 7 ([2]; Table 4, 10 ppm) | growth, Day 14 ([2]; Table 4, 10 ppm) | growth, Day 21 ([2]; Table 4, 10 ppm) | growth, Day 28 ([2]; Table 4, 10 ppm) | growth, Day 7 ([2]; Table 4, 20 ppm) | growth, Day 14 ([2]; Table 4, 20 ppm) | growth, Day 21 ([2]; Table 4, 20 ppm) | growth, Day 28 ([2]; Table 4, 20 ppm) | growth, Day 21 ([2]; Table 4, 40 ppm) | growth, Day 28 ([2]; Table 4, 40 ppm) | growth, Day 28 ([2]; Table 4, 80 ppm) | growth, Day 7 ([2]; Table 5, 1 ppm) | growth, Day 14 ([2]; Table 5, 1 ppm) | growth, Day 21 ([2]; Table 5, 1 ppm) | growth, Day 28 ([2]; Table 5, 1 ppm) | growth, Day 7 ([2]; Table 5, 2 ppm) | growth, Day 14 ([2]; Table 5, 2 ppm) | growth, Day 21 ([2]; Table 5, 2 ppm) | growth, Day 28 ([2]; Table 5, 2 ppm) | growth, Day 7 ([2]; Table 5, 4 ppm) | growth, Day 14 ([2]; Table 5, 4 ppm) | growth, Day 21 ([2]; Table 5, 4 ppm) | growth, Day 28 ([2]; Table 5, 4 ppm) | growth, Day 14 ([2]; Table 5, 8 ppm) | growth, Day 28 ([2]; Table 5, 8 ppm)
58.4%: % Kill ([1]; Table 2, 1 ppm)
3: growth, Day 14 ([2]; Table 4, 40 ppm) | growth, Day 21 ([2]; Table 4, 80 ppm) | growth, Day 28 ([2]; Table 4, 160 ppm)
77.6%: % Kill ([1]; Table 2, 5 ppm)
1: growth, Day 14 ([2]; Table 4, 80 ppm)
